Key:
greenhouse tomatoes = assay: Experiment 11: LCO foliar application in greenhouse tomatoes; assay type: in vivo, tomato; conditions: 28 days after transplant
Protocol: Tomatoes were seeded and transplanted into 10″ pots 30 days later in the greenhouse. Plants were sprayed with 5 ml (50 ng) LCO solution per plant 10 days after transplant and 14 days after transplant (50 ng×2). Flowering data was collected 28 days after transplant. The same plants as FIG. 2-1 were sampled for fruit data 28 days after transplant.

hot pepper = assay: Experiment 17: effect of LCO on hot pepper flowering and fruiting; assay type: in vivo; conditions: for increased early flowers over control: at 5 weeks; for increased number of early fruits over control: in 5 weeks
Protocol: 30-day old seedlings were transplanted into 5″ pots and 20 days later (20 DAT) plants received the first LCO spray at 2 ml/plant (50 ng/plant). The 2nd spray was conducted 3 weeks (41 DAT) after the first. Data was collected 5 weeks (55 DAT) after the first LCO application. […]

Arabidopsis thaliana = assay: Experiments 3 and 4: effect of LCO on flowering in Arabidopsis thaliana; assay type: in vivo; conditions: vs surfactant treated plants
Protocol: Two experiments were performed to investigate effect of LCO on plant's flowering using experimental model plant Arabidopsis thaliana. Plants were treated with various a range of LCO concentrations. […] The LCO treated plants reached over 80% of plants with open flowers 4 days earlier than control, surfactant treated plants. LCO induced faster and more uniform flowering.

Impatiens = assay: Experiment 5: foliar application of LCO to bedding plants (Impatiens); assay type: in vivo
Source text: This is a growth room study. Seeds of garden plant species were selected on the basis of seed-purchase popularity (Norseco, Montreal), grown in trays of Pro-Mix (NB. trademarked name) Seeding Medium, and at some size were transplanted into trays of 36 and 32 wells containing the same medium. Growth proceeded under lights in the growth room. Some 2 weeks before expected flowering, 16 young plants were sprayed with each of various levels of LCO leaving control plants untreated. The results are presented in Table 5A on bud formation and where possible opened flowers.

grain corn (cv. DK376) = assay: Experiment 9: effect of LCO on grain corn yield; assay type: in vivo
Source text: Fertilizer (36-12-18) was applied to the corn field at a rate of 500 kg/ha before seeding. A machine planter was employed to plant the grain (cv. DK376, HU2650, Fludioxnil coated). To protect corn ears from bird damage, grain corn ears in the middle two rows were covered with plastic nets after silking. LCO was applied to corn plants at a rate of 200 L/ha for the first application 40 days after planting and at 400 L/ha for the second application 58 days after planting. The two protected middle rows of plants were harvested by a combine 152 days after planting. […] The total grain yield increased for all but the 10^−8M double application.

sweet corn = assay: Experiment 8: foliar application of LCO on sweet corn; assay type: in vivo
Source text: Fertilizer (36-12-18) was applied to the corn field at 500 kg/ha before seeding. A machine planter was employed to sow sweet corn grain. Plot size was 4×4.5=18 M^2, and 6 rows/plot. To protect corn ears from raccoons and other animal damage, sweet corn plants were protected with an electric fence around the plots after silking. LCO was applied once 40 days after sowing or/and twice, 40 days after sowing and 58 days after sowing at a rate of 200 L/ha for the first application and 300 L/ha for the second application. Corn was harvested 80 days after sowing, from the two middle rows and corn ears reaching 12 cm or longer were counted as marketable.

Substance: Lipo-chitooligosaccharides [LCO]
- tomato early flowering (greenhouse tomatoes; 50 ng/plant single or double): improved tomato early flowering
- increased fruit set (greenhouse tomatoes; single 50 ng LCO application): approx. 1 fruit/plant
- increased early flowers over control (hot pepper; double applications): ≤ 40%
- increased number of early fruits over control (hot pepper; double applications): ≤ 284%
- increased early flowers over control (hot pepper; single application): up to 5%
- increased number of early fruits over control (hot pepper; single application): up to 159%
- reached over 80% of plants with open flowers earlier than control (Arabidopsis thaliana): 4 days
- Total Number of Impatiens buds (Impatiens; 20 ml/16 plants of 10^−7M LCO): 71
- Total Number of Impatiens buds (Impatiens; 20 ml/16 plants of 10^−8M LCO): 65
- Total Number of Impatiens buds (Impatiens; 20 ml/16 plants of 10^−9M LCO): 85
- Total Number of Impatiens buds (Impatiens; 50 ml/16 plants of 3 × 10^−8M LCO): 66
- Dry Yield (kg/2 rows) (grain corn (cv. DK376); 10^−7M once): 3.44 kg/2 rows
- Dry yield (kg/ha) (grain corn (cv. DK376); 10^−7M once): 5730.6 kg/ha
- Ears/2 rows (grain corn (cv. DK376); 10^−7M once): 37.25ab
- Fresh Yield (kg/2 rows) (grain corn (cv. DK376); 10^−7M once): 4.40 kg/2 rows
- Fresh Yield (kg/ha) (grain corn (cv. DK376); 10^−7M once): 7333.3 kg/ha
- Dry Yield (kg/2 rows) (grain corn (cv. DK376); 10^−7M twice): 3.96 kg/2 rows
- Dry yield (kg/ha) (grain corn (cv. DK376); 10^−7M twice): 6606.5 kg/ha
- Ears/2 rows (grain corn (cv. DK376); 10^−7M twice): 40.00a
- Fresh Yield (kg/2 rows) (grain corn (cv. DK376); 10^−7M twice): 5.03 kg/2 rows
- Fresh Yield (kg/ha) (grain corn (cv. DK376); 10^−7M twice): 8383.3 kg/ha
- Dry Yield (kg/2 rows) (grain corn (cv. DK376); 10^−8M once): 3.62 kg/2 rows
- Dry yield (kg/ha) (grain corn (cv. DK376); 10^−8M once): 6040.4 kg/ha
- Ears/2 rows (grain corn (cv. DK376); 10^−8M once): 37.00ab
- Fresh Yield (kg/2 rows) (grain corn (cv. DK376); 10^−8M once): 4.57 kg/2 rows
- Fresh Yield (kg/ha) (grain corn (cv. DK376); 10^−8M once): 7616.7 kg/ha
- Dry Yield (kg/2 rows) (grain corn (cv. DK376); 10^−8M twice): 3.23 kg/2 rows
- Dry yield (kg/ha) (grain corn (cv. DK376); 10^−8M twice): 5387.1 kg/ha
- Ears/2 rows (grain corn (cv. DK376); 10^−8M twice): 32.25bc
- Fresh Yield (kg/2 rows) (grain corn (cv. DK376); 10^−8M twice): 4.12 kg/2 rows
- Fresh Yield (kg/ha) (grain corn (cv. DK376); 10^−8M twice): 6866.7 kg/ha
- Dry Yield (kg/2 rows) (grain corn (cv. DK376); 10^−9M once): 3.77 kg/2 rows
- Dry yield (kg/ha) (grain corn (cv. DK376); 10^−9M once): 6275.6 kg/ha
- Ears/2 rows (grain corn (cv. DK376); 10^−9M once): 39.00ab
- Fresh Yield (kg/2 rows) (grain corn (cv. DK376); 10^−9M once): 4.75 kg/2 rows
- Fresh Yield (kg/ha) (grain corn (cv. DK376); 10^−9M once): 7916.7 kg/ha
- Dry Yield (kg/2 rows) (grain corn (cv. DK376); 10^−9M twice): 3.57 kg/2 rows
- Dry yield (kg/ha) (grain corn (cv. DK376); 10^−9M twice): 5953.5 kg/ha
- Ears/2 rows (grain corn (cv. DK376); 10^−9M twice): 37.25ab
- Fresh Yield (kg/2 rows) (grain corn (cv. DK376); 10^−9M twice): 4.55 kg/2 rows
- Fresh Yield (kg/ha) (grain corn (cv. DK376); 10^−9M twice): 7583.3 kg/ha
- Ear number over untreated control (grain corn (cv. DK376); all treatments except the 10^−8M double application): significantly increased
- Average Length (cm)/ear (sweet corn; 10^−7M once): 13.12 c cm
- Ear No/plant (sweet corn; 10^−7M once): 0.934
- Ear Weight (kg)/ha (sweet corn; 10^−7M once): 4383.3 kg/ha
- Ear/ha (sweet corn; 10^−7M once): 65416.7 ab /ha
- Marketable ears/ha (sweet corn; 10^−7M once): 25000.0 /ha
- Average Length (cm)/ear (sweet corn; 10^−7M twice): 13.81 ab cm
- Ear No/plant (sweet corn; 10^−7M twice): 0.935
- Ear Weight (kg)/ha (sweet corn; 10^−7M twice): 5000.0 kg/ha
- Ear/ha (sweet corn; 10^−7M twice): 70833.3 a /ha
- Marketable ears/ha (sweet corn; 10^−7M twice): 30416.7 /ha
- Average Length (cm)/ear (sweet corn; 10^−8M once): 13.24 bc cm
- Ear No/plant (sweet corn; 10^−8M once): 0.905
- Ear Weight (kg)/ha (sweet corn; 10^−8M once): 4800.0 kg/ha
- Ear/ha (sweet corn; 10^−8M once): 67083.3 ab /ha
- Marketable ears/ha (sweet corn; 10^−8M once): 26250.0 /ha
- Average Length (cm)/ear (sweet corn; 10^−8M twice): 13.64 abc cm
- Ear No/plant (sweet corn; 10^−8M twice): 0.856
- Ear Weight (kg)/ha (sweet corn; 10^−8M twice): 5150.0 kg/ha
- Ear/ha (sweet corn; 10^−8M twice): 62083.3 ab /ha
- Marketable ears/ha (sweet corn; 10^−8M twice): 30000.0 /ha
- Average Length (cm)/ear (sweet corn; 10^−9M once): 13.68 abc cm
- Ear No/plant (sweet corn; 10^−9M once): 0.928
- Ear Weight (kg)/ha (sweet corn; 10^−9M once): 4266.7 kg/ha
- Ear/ha (sweet corn; 10^−9M once): 68333.3 a /ha
- Marketable ears/ha (sweet corn; 10^−9M once): 29166.7 /ha
- Average Length (cm)/ear (sweet corn; 10^−9M twice): 13.43 bc cm
- Ear No/plant (sweet corn; 10^−9M twice): 0.886
- Ear Weight (kg)/ha (sweet corn; 10^−9M twice): 4033.3 kg/ha
- Ear/ha (sweet corn; 10^−9M twice): 56666.7 bc /ha
- Marketable ears/ha (sweet corn; 10^−9M twice): 25000.0 /ha
- total number of sweet corn ears (sweet corn; foliar application in the range of 10^−8-10^−7M): significantly increased

Reference: US20130244879A1, “USE OF LIPO-CHITOOLIGOSACCHARIDES TO INITIATE EARLY FLOWERING AND FRUIT DEVELOPMENT IN PLANTS AND RELATED METHODS AND COMPOSITIONS” (NOVOZYMES BIOLOGICALS HOLDING A/S, priority 2003, published 2013)
